Measured values: patent US4698352A, “4-oxo-1,4-dihydronicotinic acid derivatives, salts thereof, and antibacterial agents containing the same” (Toyama Chemical Co., Ltd., priority 1982, dated 1987)
In brackets after ≈: the same amount, converted by molar mass. Where two headings read alike, the source gives them in different places.

What was measured:
Assay in all cases: Antibacterial activity (MIC), agar dilution
Assay type in all cases: cell-based
Aci. antitratus A-6 = conditions: 20 h
Text: (§1) The amount of bacteria inoculated was 10^4 cells per plate (10^6 cells per ml).

E. coli NIHJ JC-2 = conditions: Escherichia coli, NIHJJC2, 20 h
Text: as §1

E. coli TK-111 = conditions: Escherichia coli, TK111, 20 h
Text: as §1

Ent. cloacae IID977 = conditions: Enterobacter cloacae, IID977, 20 h
Text: as §1

Kl. pneumoniae Y-41 = conditions: Klebsiella pneumoniae, Y41, 10^6 cells per ml, 37° C., 20 hours, read-out: MIC
Text: as §1

Kl. pneumoniae Y-50 = conditions: Klebsiella pneumoniae, Y50, 20 h, 10^6 cells per ml, 37° C., read-out: MIC
Text: as §1

Pro. mirabilis T-111 = conditions: Proteus mirabilis, 37° C.
Text: as §1

Pro. morganii T-216 = conditions: Morganella morganii, 37° C.
Text: as §1

Pro. vulgaris GN3027 = conditions: Proteus vulgaris, GN3027, 20 h, Pro. vulgaris GN3027; 10^6 cells per ml; 37° C., 20 hours; read-out: MIC
Text: as §1

Ps. aeruginosa IFO3445 = conditions: Pseudomonas aeruginosa
Text: as §1

Ps. aeruginosa S-68 = conditions: Pseudomonas aeruginosa
Text: as §1

St. aureus FDA209P = conditions: Staphylococcus aureus, FDA209P, 20 h
Text: as §1

E. coli TK-3* = conditions: Escherichia coli, 20 h
Text: as §1
(§2) * Penicillinase-producing bacteria

Kl. pneumoniae Y-4* = conditions: Klebsiella pneumoniae, 20 h, Kl. pneumoniae Y-4, penicillinase-producing; 10^6 cells per ml; read-out: MIC
Text: as §1, §2

Ps. aeruginosa GN3379* = conditions: Pseudomonas aeruginosa, Ps. aeruginosa GN3379, penicillinase-producing, 10^6 cells per ml
Text: as §1, §2

St. aureus F-137* = conditions: Staphylococcus aureus, 20 h
Text: as §1, §2

E. coli GN5482** = conditions: Escherichia coli, 20 h; E. coli GN5482, cephalospolinase-producing; 10^6 cells per ml; read-out: MIC
Text: as §1
(§3) ** Cephalospolinase-producing bacteria

Pro. vulgaris GN76** = conditions: Proteus vulgaris
Text: as §1, §3

Ps. aeruginosa GN918** = conditions: Pseudomonas aeruginosa, Ps. aeruginosa GN918, cephalospolinase-producing, 10^6 cells per ml
Text: as §1, §3

[1] = Aci. antitratus A-6, 10^6 cells per ml, 37° C., 20 hours, read-out: MIC
[2] = E. coli TK-111, 10^6 cells per ml, 37° C., 20 hours, read-out: MIC
[3] = T111, 10^6 cells per ml, 20 hours, read-out: MIC
[4] = T216, 10^6 cells per ml, 20 hours, read-out: MIC
[5] = Ps. aeruginosa IFO3445, 10^6 cells per ml, 37° C., 20 hours, read-out: MIC
[6] = S68, Ps. aeruginosa S-68, 10^6 cells per ml, 37° C., 20 hours, read-out: MIC
[7] = E. coli TK-3, penicillinase-producing, 10^6 cells per ml, read-out: MIC
[8] = St. aureus F-137, penicillinase-producing, 10^6 cells per ml, read-out: MIC
[9] = Ent. cloacae IID977, 10^6 cells per ml, 37° C., 20 hours, read-out: MIC
[10] = 20 h, Pro. vulgaris GN76, cephalospolinase-producing, 10^6 cells per ml, read-out: MIC
[11] = E. coli NIHJ JC-2, 10^6 cells per ml, 37° C., 20 hours, read-out: MIC
[12] = St. aureus FDA209P, 10^6 cells per ml, 37° C., 20 hours, read-out: MIC

Structure (SMILES)	MIC (Aci. antitratus A-6; [1])	MIC (E. coli NIHJ JC-2)	MIC (E. coli TK-111; [2])	MIC (Kl. pneumoniae Y-41)	MIC (Kl. pneumoniae Y-50)	MIC (Pro. mirabilis T-111; [3])	MIC (Pro. morganii T-216; [4])	MIC (Pro. vulgaris GN3027)	MIC (Ps. aeruginosa IFO3445; [5])	MIC (Ps. aeruginosa S-68; [6])	MIC (St. aureus FDA209P)	MIC (E. coli TK-3*; [7])	MIC (Kl. pneumoniae Y-4*)	MIC (Ps. aeruginosa GN3379*; 20 h, read-out: MIC)	MIC (E. coli GN5482**)	MIC (Ps. aeruginosa GN918**; 20 h, read-out: MIC)	MIC (St. aureus F-137*; [8])	MIC (Ent. cloacae IID977; [9])	MIC (Pro. vulgaris GN76**; [10])	MIC (E. coli NIHJ JC-2; [11])	other results
O=C(O)c1cn(-c2ccc(F)cc2)c(-c2ccc(N=Cc3ccc([N+](=O)[O-])o3)cc2)cc1=O	3.13 µg/mL (≈ 7 µM)	1.56 µg/mL (≈ 3.49 µM)	0.78 µg/mL (≈ 1.74 µM)	6.25 µg/mL (≈ 14 µM)	1.56 µg/mL (≈ 3.49 µM)	12.5 µg/mL (≈ 27.9 µM)	3.13 µg/mL (≈ 7 µM)	0.39 µg/mL (≈ 0.872 µM)	25 µg/mL (≈ 55.9 µM)	25 µg/mL (≈ 55.9 µM)	6.25 µg/mL (≈ 14 µM)	3.13 µg/mL (≈ 7 µM)	25 µg/mL (≈ 55.9 µM)	50 µg/mL (≈ 112 µM)	0.39 µg/mL (≈ 0.872 µM)	25 µg/mL (≈ 55.9 µM)	–	–	–	–	MIC (Ent. cloacae IID977): 6.25 µg/mL (≈ 14 µM); MIC (St. aureus F-137*): 6.25 µg/mL (≈ 14 µM); MIC (Pro. vulgaris GN76**; GN76, 20 h): 1.56 µg/mL (≈ 3.49 µM)
O=C(O)c1cn(-c2ccc(O)cc2)c(C2CC=CCC2)cc1=O (stereo not drawn)	–	6.25 µg/mL (≈ 20.1 µM)	–	6.25 µg/mL (≈ 20.1 µM)	1.56 µg/mL (≈ 5.01 µM)	–	3.13 µg/mL (≈ 10.1 µM)	0.39 µg/mL (≈ 1.25 µM)	–	–	1.56 µg/mL (≈ 5.01 µM)	–	12.5 µg/mL (≈ 40.1 µM)	25 µg/mL (≈ 80.3 µM)	0.39 µg/mL (≈ 1.25 µM)	–	3.13 µg/mL (≈ 10.1 µM)	–	–	–	MIC (Aci. antitratus A-6): 6.25 µg/mL (≈ 20.1 µM); MIC (E. coli TK-111): 1.56 µg/mL (≈ 5.01 µM); MIC (Ent. cloacae IID977): 6.25 µg/mL (≈ 20.1 µM); MIC (Pro. mirabilis T-111; T111, 20 h, 10^6 cells per ml): 12.5 µg/mL (≈ 40.1 µM); MIC (Ps. aeruginosa IFO3445; IFO3445, 20 h): 12.5 µg/mL (≈ 40.1 µM); MIC (Ps. aeruginosa S-68; S68, 20 h): 12.5 µg/mL (≈ 40.1 µM); MIC (E. coli TK-3*): 6.25 µg/mL (≈ 20.1 µM); MIC (Pro. vulgaris GN76**; GN76, 20 h): 1.56 µg/mL (≈ 5.01 µM); MIC (Ps. aeruginosa GN918**; GN918, 20 h): 1.56 µg/mL (≈ 5.01 µM)
Cc1cc(O)ccc1-n1cc(C(=O)O)c(=O)cc1C1CC2C=CC1C2 (stereo not drawn)	6.25 µg/mL (≈ 18.5 µM)	3.13 µg/mL (≈ 9.28 µM)	1.56 µg/mL (≈ 4.62 µM)	25 µg/mL (≈ 74.1 µM)	3.13 µg/mL (≈ 9.28 µM)	25 µg/mL (≈ 74.1 µM)	12.5 µg/mL (≈ 37.1 µM)	0.78 µg/mL (≈ 2.31 µM)	> 100 µg/mL	> 100 µg/mL	3.13 µg/mL (≈ 9.28 µM)	12.5 µg/mL (≈ 37.1 µM)	25 µg/mL (≈ 74.1 µM)	> 100 µg/mL	1.56 µg/mL (≈ 4.62 µM)	50 µg/mL (≈ 148 µM)	–	12.5 µg/mL (≈ 37.1 µM)	6.25 µg/mL (≈ 18.5 µM)	–	MIC (St. aureus F-137*): 3.13 µg/mL (≈ 9.28 µM)
O=C(O)c1cn(-c2ccc(O)cc2)c(-c2ccc(-c3ccc(Cl)s3)cc2)cc1=O	0.1 µg/mL (≈ 0.236 µM)	–	0.1 µg/mL (≈ 0.236 µM)	1.56 µg/mL (≈ 3.68 µM)	0.39 µg/mL (≈ 0.92 µM)	–	0.78 µg/mL (≈ 1.84 µM)	≤ 0.1 µg/mL	3.13 µg/mL (≈ 7.38 µM)	3.13 µg/mL (≈ 7.38 µM)	–	0.78 µg/mL (≈ 1.84 µM)	1.56 µg/mL (≈ 3.68 µM)	3.13 µg/mL (≈ 7.38 µM)	≤ 0.05 µg/mL	0.78 µg/mL (≈ 1.84 µM)	≤ 0.05 µg/mL	0.78 µg/mL (≈ 1.84 µM)	0.39 µg/mL (≈ 0.92 µM)	0.2 µg/mL (≈ 0.472 µM)	MIC (Pro. mirabilis T-111; T111, 20 h, 10^6 cells per ml): 1.56 µg/mL (≈ 3.68 µM); MIC (St. aureus FDA209P; [12]): ≤ 0.05 µg/mL
CC(=O)Oc1ccc(-n2cc(C(=O)OCCN(C)C)c(=O)cc2-c2ccc3c(ccn3C)c2)c(F)c1	0.39 µg/mL (≈ 0.793 µM)	–	≤ 0.05 µg/mL	3.13 µg/mL (≈ 6.37 µM)	0.39 µg/mL (≈ 0.793 µM)	1.56 µg/mL (≈ 3.17 µM)	–	0.1 µg/mL (≈ 0.203 µM)	6.25 µg/mL (≈ 12.7 µM)	6.25 µg/mL (≈ 12.7 µM)	–	0.39 µg/mL (≈ 0.793 µM)	3.13 µg/mL (≈ 6.37 µM)	12.5 µg/mL (≈ 25.4 µM)	≤ 0.05 µg/mL	1.56 µg/mL (≈ 3.17 µM)	≤ 0.05 µg/mL	0.78 µg/mL (≈ 1.59 µM)	0.78 µg/mL (≈ 1.59 µM)	0.1 µg/mL (≈ 0.203 µM)	MIC (Pro. morganii T-216; T216, 20 h, 10^6 cells per ml): 3.13 µg/mL (≈ 6.37 µM); MIC (St. aureus FDA209P; [12]): ≤ 0.05 µg/mL
CC(=O)Oc1ccc(-n2cc(C(=O)O)c(=O)cc2-c2cc3ccccc3s2)c(F)c1	0.2 µg/mL (≈ 0.472 µM)	–	≤ 0.05 µg/mL	3.13 µg/mL (≈ 7.39 µM)	0.39 µg/mL (≈ 0.921 µM)	1.56 µg/mL (≈ 3.68 µM)	1.56 µg/mL (≈ 3.68 µM)	0.1 µg/mL (≈ 0.236 µM)	–	1.56 µg/mL (≈ 3.68 µM)	–	0.39 µg/mL (≈ 0.921 µM)	3.13 µg/mL (≈ 7.39 µM)	–	≤ 0.05 µg/mL	6.25 µg/mL (≈ 14.8 µM)	≤ 0.05 µg/mL	0.78 µg/mL (≈ 1.84 µM)	0.39 µg/mL (≈ 0.921 µM)	0.39 µg/mL (≈ 0.921 µM)	MIC (Ps. aeruginosa IFO3445; IFO3445, 20 h): 3.13 µg/mL (≈ 7.39 µM); MIC (St. aureus FDA209P; [12]): 0.1 µg/mL (≈ 0.236 µM); MIC (Ps. aeruginosa GN3379*; GN3379, 20 h): 3.13 µg/mL (≈ 7.39 µM)
